Results on three molecules are retold here after patent US20240277698A1, “METHODS OF USING ALDOSTERONE SYNTHASE INHIBITORS” (CINCOR PHARMA, INC., priority 2021, published 2024).

Read-outs that look alike come from different tables or passages of the source.

Series [1] in a line: Metformin drug-drug interaction study: urine pharmacokinetics of metformin. The class given is in vivo, human.
Series [2] in a line: Metformin drug-drug interaction study: safety (TEAEs). To be noted: for Any TEAEs leading to death, number of events / Any TEAEs leading to death, subjects: Treatment A = 1000 mg metformin alone (N = 26), Treatment B = 1000 mg metformin + 10 mg Compound 1 (N = 27). On the procedure: Safety was assessed throughout the study based on adverse events (AEs), physical examinations, weight measurements, electrocardiograms (ECGs), vital signs assessments (seated and orthostatic), and clinical laboratory evaluations.
The following safety assessments were performed: • AEs and SAEs; • Clinical laboratory test assessments; • Vital signs including heart rate, blood pressure (BP) (including orthostatic BP when indicated), respiration rate, and temperature; • 12-lead ECGs; • Physical examinations; and • Height, weight, and BMI.
Safety analyses were performed throughout the study based on the Safety Population. Safety was evaluated through assessments of AEs, physical examinations, ECGs, weight measurements, vital signs assessments (seated and orthostatic), and clinical laboratory evaluations.
A TEAE was defined as an AE that emerged, having been absent prior to the study, or an AE that worsened in severity after the first dose of any drug in this study. TEAEs were summarized by MedDRA SOC and PT for each treatment and overall. The number and percentage of subjects experiencing TEAEs and the number of TEAEs were tabulated. Subjects reporting more than 1 AE for a given MedDRA PT were counted only once for that term using the most severe incident. Subjects reporting more than 1 type of event within a SOC were counted only once for that SOC. The Safety Population was used for all the safety analyses.

The target of the next series is aldosterone synthase (Homo sapiens, UniProt P19099). As to conditions: cited from earlier work.
A short description of the next series: clinical. As to conditions: human, in vivo, 1000 mg; for AUC(0-inf): Metformin plasma AUC0-inf; for AUC(0-t): Metformin plasma AUC0-t.
The conditions of series [3]: Treatment B: single 1000 mg metformin + 10 mg Compound 1.
The mark [4] stands for this setting: Treatment B: 10 mg Compound 1 with single 1000 mg metformin.
Where [5] appears, read: Treatment A: single 1000 mg metformin alone.
Setting [6] is: Treatment B: single 1000 mg metformin + 10 mg Compound 1.

Chain of aldosterone synthase (P19099 25-503, species assumed): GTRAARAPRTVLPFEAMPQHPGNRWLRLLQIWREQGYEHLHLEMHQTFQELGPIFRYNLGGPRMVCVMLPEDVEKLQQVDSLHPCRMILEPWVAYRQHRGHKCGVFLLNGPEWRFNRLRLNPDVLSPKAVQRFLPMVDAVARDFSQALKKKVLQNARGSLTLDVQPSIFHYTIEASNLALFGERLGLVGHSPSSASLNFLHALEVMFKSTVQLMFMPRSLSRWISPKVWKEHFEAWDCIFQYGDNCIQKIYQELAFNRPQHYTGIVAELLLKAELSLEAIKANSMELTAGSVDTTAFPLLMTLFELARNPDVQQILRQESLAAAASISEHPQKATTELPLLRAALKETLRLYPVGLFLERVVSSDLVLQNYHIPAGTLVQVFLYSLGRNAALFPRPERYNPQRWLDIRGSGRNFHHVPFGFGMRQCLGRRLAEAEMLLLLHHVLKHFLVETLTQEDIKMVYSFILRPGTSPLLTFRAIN

As to `CCC(=O)NC1CCCc2c(-c3ccc4c(c3)CCC(=O)N4C)cncc21` (stereo not drawn) [Compound 1, N-(4-(1-methyl-2-oxo-1,2,3,4-tetrahydroquinolin-6-yl)-5,6,7,8-tetrahydroisoquinolin-8-yl)propionamide], the “effect on metformin renal clearance” value in series [1] (10 mg Compound 1 2 hours prior to metformin dosing) was “did not result in a reduction”. Further, under setting [4], the “Compound 1 plasma AUC%extrap, Mean (SD)” value is listed as 9.9 (5.2) % and the “Compound 1 plasma λz, Mean (SD)” value is given as 0.033 (0.008) 1/h. In addition, under “human, plasma”, the time of peak concentration (Tmax) worked out at 1.3 h. Where the note is “human, plasma, Compound 1 plasma AUC0-24, Mean (SD), Treatment B: 10 mg Compound 1 with single 1000 mg metformin”, this molecule had an AUC(0-t) of 1.66 µg·h/mL. The AUC(0-t) (human, plasma, Compound 1 plasma AUC0-72, Mean (SD), Treatment B: 10 mg Compound 1 with single 1000 mg metformin) turned out to be 2.87 µg·h/mL. Moreover, in series [2], the “Any TEAEs leading to death, number of events” value was 0 e and the “Any TEAEs leading to death, subjects” value is on record as 0 (0.0) n (%).

In the case of `N#Cc1ccc([C@H]2CCc3cncn32)c(F)c1` [LCI1699], the “specificity for aldosterone synthase” value on aldosterone synthase (clinical trials by Novartis, discontinued) is reported as “lack of specificity for aldosterone synthase”. Moreover, on aldosterone synthase (previously observed), the “ACTH associated with aldosterone reductions” value is “corresponding increase in ACTH” and the “increase in predose 11-deoxycorticosterone levels” value was “up to 10 fold”.

In “clinical” (Geom LS Mean), `CN(C)C(=N)N=C(N)N` [metformin] registered a total exposure AUC(0-inf) of 11.1 µg·h/mL and an AUC(0-t) of 11 µg·h/mL. Also, in “clinical” (Mean (SD)), the AUC(0-inf) was determined as 11.2 µg·h/mL and the AUC(0-t) worked out at 11.2 µg·h/mL. In series [3], the “Metformin plasma AUC0-t, Geom LS Mean” value was 10.68345 µg·h/mL. For the same molecule, the “metformin dose excreted in the urine” value in series [1] (1000 mg metformin, presence and absence of Compound 1) is given as “approximately 30%”. Moreover, in series [1] (setting [5]), the “Metformin urine Fe0-3, Mean (CV %)” value was 11.76 (33.0) %; the “Metformin urine Fe0-6, Mean (CV %)” value is recorded as 21.50 (27.2) %; the “Metformin urine Fe0-9, Mean (CV %)” value was 25.40 (28.1) %; the “Metformin urine Fe0-12, Mean (CV %)” value is 27.42 (26.2) %. In series [1] (setting [5]), the “Metformin urine Fe0-18, Mean (CV %)” value is 29.11 (25.6) %; the “Metformin urine Fe0-24, Mean (CV %)” value is on record as 29.82 (25.1) %; the “Metformin urine Fe0-30, Mean (CV %)” value is 30.21 (24.9) %; the “Metformin urine Fe0-36, Mean (CV %)” value is 30.50 (24.7) %. Further, in series [1] (setting [5]), the “Metformin urine Fe0-48, Mean (CV %)” value is 30.90 (24.5) % and the “Metformin urine Fe0-72, Mean (CV %)” value is 31.23 (24.2) %. In series [1] (setting [6]), the “Metformin urine Fe0-3, Mean (CV %)” value was 10.47 (36.6) %; the “Metformin urine Fe0-6, Mean (CV %)” value is 19.06 (32.4) %; the “Metformin urine Fe0-9, Mean (CV %)” value is 23.11 (33.8) %; the “Metformin urine Fe0-12, Mean (CV %)” value was 25.07 (32.5) %. In series [1] (setting [6]), the “Metformin urine Fe0-18, Mean (CV %)” value is 26.52 (31.3) %; the “Metformin urine Fe0-24, Mean (CV %)” value was 27.21 (30.6) %; the “Metformin urine Fe0-30, Mean (CV %)” value is on record as 27.62 (30.3) %; the “Metformin urine Fe0-36, Mean (CV %)” value was 27.87 (30.0) %. Also, in series [1] (setting [6]), the “Metformin urine Fe0-48, Mean (CV %)” value is listed as 28.25 (29.4) % and the “Metformin urine Fe0-72, Mean (CV %)” value is 28.72 (28.9) %. Also, in series [2], the “Any TEAEs leading to death, number of events” value was found to be 0 e and the “Any TEAEs leading to death, subjects” value was 0 (0.0) n (%). Further, in series [2] (human, in vivo), the subjects experiencing diarrhoea is 3 (11.5%), the subjects experiencing nausea is recorded as 1 (3.7%) and the “subjects experiencing upper abdominal pain” value is listed as “One (3.7%)”.

Usually Tmax stands for the time at which the peak concentration occurs. What is called AUC(0-t) is exposure summed from dosing to a finite time, without extrapolation to infinity. By AUC(0-inf) is commonly meant the area under the concentration-time curve extrapolated to infinity. Low readings indicate low exposure, high ones high exposure.
